From PubChem BioAssay AID1224891 come the findings set out here.

The target of the assay is Tyrosine-protein kinase JAK3 (Homo sapiens) (UniProt P52333). Description: JAK3 kinase inhibitors, dose response, biochemical, purified enzyme (AID 1224891). The note with it: recombinant JAK3 kinase domain, 32P-ATP radiometric.
Sequence of Tyrosine-protein kinase JAK3 (Homo sapiens) (P52333 whole entry, looked up, the tested form may be a part): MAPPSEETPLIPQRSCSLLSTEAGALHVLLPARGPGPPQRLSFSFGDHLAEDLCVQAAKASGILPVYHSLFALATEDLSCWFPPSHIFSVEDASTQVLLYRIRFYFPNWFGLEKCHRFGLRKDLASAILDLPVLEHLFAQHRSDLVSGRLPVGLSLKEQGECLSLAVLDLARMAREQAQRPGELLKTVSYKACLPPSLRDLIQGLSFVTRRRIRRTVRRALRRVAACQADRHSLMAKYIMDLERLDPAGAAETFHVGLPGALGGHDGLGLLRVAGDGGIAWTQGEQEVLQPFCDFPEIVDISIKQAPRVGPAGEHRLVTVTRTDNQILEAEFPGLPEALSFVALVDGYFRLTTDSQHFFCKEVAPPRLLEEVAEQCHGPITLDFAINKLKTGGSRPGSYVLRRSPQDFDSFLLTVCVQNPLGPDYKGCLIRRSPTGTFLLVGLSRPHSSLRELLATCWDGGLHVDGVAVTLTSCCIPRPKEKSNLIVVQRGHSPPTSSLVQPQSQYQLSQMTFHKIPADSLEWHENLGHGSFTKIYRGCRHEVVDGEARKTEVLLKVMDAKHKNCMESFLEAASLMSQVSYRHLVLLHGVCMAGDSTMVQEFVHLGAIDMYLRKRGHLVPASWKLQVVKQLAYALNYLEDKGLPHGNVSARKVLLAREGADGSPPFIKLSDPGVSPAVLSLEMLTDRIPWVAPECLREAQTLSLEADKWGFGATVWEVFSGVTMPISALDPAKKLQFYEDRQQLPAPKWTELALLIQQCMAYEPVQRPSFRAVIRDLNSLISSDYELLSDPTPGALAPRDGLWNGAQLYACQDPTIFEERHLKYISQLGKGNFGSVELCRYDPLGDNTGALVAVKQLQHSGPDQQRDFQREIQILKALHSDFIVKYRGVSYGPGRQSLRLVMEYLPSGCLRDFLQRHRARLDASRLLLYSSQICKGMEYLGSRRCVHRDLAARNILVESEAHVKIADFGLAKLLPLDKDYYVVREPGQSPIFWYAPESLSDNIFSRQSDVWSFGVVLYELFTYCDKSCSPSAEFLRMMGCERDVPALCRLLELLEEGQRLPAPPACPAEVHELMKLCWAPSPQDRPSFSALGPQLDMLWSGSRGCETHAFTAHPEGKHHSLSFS

Broadly, the IC50 is the concentration at which inhibition is half-maximal. `CCOC(=O)c1c[nH]c2ncnc(-c3cc(NC(=O)CC)ccc3F)c12`: the half-inhibitory concentration (IC50) amounted to 1920 nM.
